This is an account of results in patent publication US20190135793A1, “HETEROCYCLIC INHIBITORS OF KDM5 FOR THE TREATMENT OF DISEASE” (Board of Regents, The University of Texas System, priority 2017, published 2019).

Read-outs that look alike come from different tables or passages of the source.

One experiment has as its target T1, KDM5B (Homo sapiens, UniProt Q9UGL1).
T1 construct: Full length of KDM5B and KDM4C protein were purchased from Active Motif; purchased Active Motif 31832
The experiment is described as follows: biochemical. How it is done: (§1) KDM4C and KDM5B AlphaScreen Assay Material and Method
(§2) Compounds disclosed herein were (and can be) screened using the following assay.
Peptides used in all experiments were purchased from Anaspe. […] Final concentration of KDM5B and KDM4C used in the assay were 0.5 nM and 0.2 nM. Final concentration of peptides for 5B and 4C used in the assay were 3 nM.
(§3) 4 μL of KDM5B or KDM4C protein were added to 384-well OptiPlate by using multiflow, followed by 4 μl of either buffer or compound. Plates were sealed, spun down and incubated at RT for 15 min. 4 μl of biotinylated peptide was added to the plate, the plate was incubated at room temperature for 25 minutes (KDM5B) and 30 minutes (KDM4C) after sealed and spun down. Streptavidin donor beads and acceptor beads were diluted and mixed in the detection buffer with 7.5 mM EDTA, followed by adding 8 μl of acceptor and donor beads mix to the plate, before the plate was sealed and incubated at room temperature for 3 h or overnight at dark. The plate was read on Envision plate reader (PerkinElmer) using Alphascreen protocol. IC50s were calculated in GraphPad Prism 6.

The next experiment concerns the target T2, KDM4C (Homo sapiens, UniProt Q9H3R0).
T2 construct: Full length of KDM5B and KDM4C protein were purchased from Active Motif; purchased Active Motif 31858
T2 sequence (Q9H3R0 1-1056): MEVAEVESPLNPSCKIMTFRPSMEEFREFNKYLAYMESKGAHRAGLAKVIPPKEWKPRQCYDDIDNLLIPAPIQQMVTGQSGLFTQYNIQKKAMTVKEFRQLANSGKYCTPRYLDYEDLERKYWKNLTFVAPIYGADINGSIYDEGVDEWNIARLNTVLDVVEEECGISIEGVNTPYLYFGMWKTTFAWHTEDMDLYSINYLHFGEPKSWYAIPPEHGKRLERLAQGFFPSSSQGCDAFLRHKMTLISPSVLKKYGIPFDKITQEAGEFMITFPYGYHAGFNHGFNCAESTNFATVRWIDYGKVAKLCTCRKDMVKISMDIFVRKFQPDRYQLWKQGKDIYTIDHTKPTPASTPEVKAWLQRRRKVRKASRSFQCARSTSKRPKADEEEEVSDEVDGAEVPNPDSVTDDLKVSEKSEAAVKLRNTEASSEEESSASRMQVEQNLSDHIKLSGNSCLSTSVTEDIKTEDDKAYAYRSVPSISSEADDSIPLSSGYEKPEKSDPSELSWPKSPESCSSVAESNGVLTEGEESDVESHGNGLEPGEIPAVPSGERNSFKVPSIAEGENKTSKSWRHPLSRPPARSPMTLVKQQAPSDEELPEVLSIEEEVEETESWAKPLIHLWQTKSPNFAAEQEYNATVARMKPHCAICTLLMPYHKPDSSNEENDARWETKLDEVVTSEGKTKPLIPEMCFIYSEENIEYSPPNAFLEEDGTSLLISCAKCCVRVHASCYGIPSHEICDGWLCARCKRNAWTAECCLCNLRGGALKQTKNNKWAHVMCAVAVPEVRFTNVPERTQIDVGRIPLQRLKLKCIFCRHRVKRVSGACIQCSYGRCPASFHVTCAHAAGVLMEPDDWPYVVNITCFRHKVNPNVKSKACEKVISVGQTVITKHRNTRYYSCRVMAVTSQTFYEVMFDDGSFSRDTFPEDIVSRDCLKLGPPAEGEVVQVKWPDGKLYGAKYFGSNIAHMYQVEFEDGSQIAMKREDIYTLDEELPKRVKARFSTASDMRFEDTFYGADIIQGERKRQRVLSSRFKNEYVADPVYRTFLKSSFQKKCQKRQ
The experiment is described as follows: KDM4C AlphaScreen assay. The experiment is classed as biochemical. The settings on record: AlphaScreen; full length KDM4C 0.2 nM; biotinylated H3K9Me3 peptide 3 nM; 30 minutes at room temperature. How it is done: as §1, §2
Peptides used in all experiments were purchased from Anaspe. Full length of KDM5B and KDM4C protein were purchased from Active Motif: KDM5B (cat#31832) and KDM4C (Cat #31858). Final concentration of KDM5B and KDM4C used in the assay were 0.5 nM and 0.2 nM. Final concentration of peptides for 5B and 4C used in the assay were 3 nM.
as §3, with “AlphaScreen assays was conducted as following protocol: buffer used to make compound plate or DMSO is composed of 50 mM HEPES pH 7.4, 0.003% Tween-20; buffer used to dilute enzyme is composed of 50 mM HEPES pH 7.4, 0.003% Tween-20, 0.01% BSA, 500 μM TCEP; and buffer used to dilute the substrate is composed of 50 mM HEPES pH 7.4, 0.003% Tween-20, (NH4)2Fe(SO4)2 15 μM, alpha-ketoglutaric acid 4 μM and L-ascorbic acid 100 μM. 4 μL” for “4 μL”
In general terms: Alpha assays give light when donor and acceptor beads are brought close together.

Where [1] appears, read: AlphaScreen, full length KDM5B 0.5 nM, biotinylated H3K4Me3 peptide 3 nM, 25 minutes at room temperature, read-out: KDM5B (IC50).

T1 sequence (Q9UGL1 whole entry): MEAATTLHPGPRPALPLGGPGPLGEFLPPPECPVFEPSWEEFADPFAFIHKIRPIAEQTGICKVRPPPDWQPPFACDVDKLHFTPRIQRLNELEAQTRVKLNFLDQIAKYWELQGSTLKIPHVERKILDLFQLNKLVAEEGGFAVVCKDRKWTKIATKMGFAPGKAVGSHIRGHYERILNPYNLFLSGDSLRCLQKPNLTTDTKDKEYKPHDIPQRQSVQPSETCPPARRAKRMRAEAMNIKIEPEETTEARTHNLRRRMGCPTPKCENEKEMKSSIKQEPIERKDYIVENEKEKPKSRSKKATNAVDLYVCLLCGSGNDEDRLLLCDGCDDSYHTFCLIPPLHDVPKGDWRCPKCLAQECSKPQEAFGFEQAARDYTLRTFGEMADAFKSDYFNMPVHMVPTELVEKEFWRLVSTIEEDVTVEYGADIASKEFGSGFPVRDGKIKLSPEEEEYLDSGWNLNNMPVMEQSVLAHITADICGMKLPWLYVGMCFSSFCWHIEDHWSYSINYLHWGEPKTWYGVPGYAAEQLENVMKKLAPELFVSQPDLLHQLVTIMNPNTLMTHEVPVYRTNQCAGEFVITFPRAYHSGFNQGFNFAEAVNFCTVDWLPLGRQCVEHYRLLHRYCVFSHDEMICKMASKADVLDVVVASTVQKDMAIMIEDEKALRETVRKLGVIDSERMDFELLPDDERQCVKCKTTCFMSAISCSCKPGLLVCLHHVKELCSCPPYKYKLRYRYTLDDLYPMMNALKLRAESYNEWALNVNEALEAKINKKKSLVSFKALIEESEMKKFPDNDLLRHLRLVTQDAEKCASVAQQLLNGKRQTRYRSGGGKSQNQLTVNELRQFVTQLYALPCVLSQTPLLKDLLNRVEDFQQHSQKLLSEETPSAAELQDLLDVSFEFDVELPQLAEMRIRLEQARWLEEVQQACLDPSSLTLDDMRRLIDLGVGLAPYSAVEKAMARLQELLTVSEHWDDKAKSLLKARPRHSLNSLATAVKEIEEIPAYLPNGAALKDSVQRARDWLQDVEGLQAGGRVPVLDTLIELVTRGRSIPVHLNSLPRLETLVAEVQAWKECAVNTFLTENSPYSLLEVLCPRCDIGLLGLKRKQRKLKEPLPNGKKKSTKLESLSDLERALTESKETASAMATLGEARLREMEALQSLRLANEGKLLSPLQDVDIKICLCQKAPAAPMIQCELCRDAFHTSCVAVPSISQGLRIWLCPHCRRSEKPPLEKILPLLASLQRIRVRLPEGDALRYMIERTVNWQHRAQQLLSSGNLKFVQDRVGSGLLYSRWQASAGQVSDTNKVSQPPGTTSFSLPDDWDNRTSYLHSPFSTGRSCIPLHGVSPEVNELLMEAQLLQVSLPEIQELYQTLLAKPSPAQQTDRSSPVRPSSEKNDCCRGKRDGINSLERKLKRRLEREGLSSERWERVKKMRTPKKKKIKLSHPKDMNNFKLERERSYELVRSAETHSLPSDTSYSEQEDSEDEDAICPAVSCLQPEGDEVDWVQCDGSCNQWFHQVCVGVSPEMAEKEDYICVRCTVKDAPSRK

Consider `CC(C)c1c(O)nc(-n2ccnc2)nc1-c1cnn(CC(N)=O)c1` [Example 7, 2-(4-(6-Hydroxy-2-(1H-imidazol-1-yl)-5-isopropylpyrimidin-4-yl)-1H-pyrazol-1-yl)-acetamide], for which the half-maximal inhibitory concentration (IC50) (as a rule, the concentration that inhibits the measured activity by half) was found to be 11 nM against KDM5B and 1150 nM against KDM4C.

With `CC(C)c1c(O)nc(-n2ccnc2)nc1-c1cnn(CC(=O)N2CCC(O)CC2)c1` [Example 119, 2-{4-[6-Hydroxy-2-(1H-imidazol-1-yl)-5-(propan-2-yl)pyrimidin-4-yl]-1H-pyrazol-1-yl}-1-(4-hydroxy-piperidin-1-yl)ethan-1-one], the IC50 was 39 nM on KDM5B (setting [1]) and 1850 nM on KDM4C.

`CC(C)c1c(O)nc(-n2ccnc2)nc1OCC(=O)NCc1cccnc1` [Example 141, 2-{[6-Hydroxy-2-(1H-imidazol-1-yl)-5-(propan-2-yl)pyrimidin-4-yl]oxy}-N-(pyridin-3-ylmethyl)-acetamide]: the IC50 at KDM5B (setting [1]) stood at 33 nM; against KDM4C, 4400 nM.

As to `Cc1nc(-c2nccs2)nc(O)c1C(C)C` [Example 158, 6-Methyl-5-(propan-2-yl)-2-(1,3-thiazol-2-yl)-pyrimidin-4-ol], the figures for the IC50 at KDM5B (setting [1]) and against KDM4C were 2410 nM and 30000 nM, respectively.

`CC(C)c1c(O)nc(-n2ccnc2)nc1-c1cccc(CNS(C)(=O)=O)c1` [Example 76, N-({3-[6-Hydroxy-2-(1H-imidazol-1-yl)-5-(propan-2-yl)pyrimidin-4-yl]phenyl}-methyl)methanesulfonamide]: the values for the IC50 on KDM5B and at KDM4C were 29 nM and 1860 nM, respectively.

Regarding `CC(C)c1c(O)nc(-n2ccnc2)nc1-c1cnn(CC(=O)NCCN(C)C)c1` [Example 91, N-[2-(Dimethylamino)ethyl]-2-{4-[6-hydroxy-2-(1H-imidazol-1-yl)-5-(propan-2-yl)pyrimidin-4-yl]-1H-pyrazol-1-yl}acetamide], the IC50 on KDM5B was determined as 5 nM; at KDM4C, 634 nM.

For `CC(C)c1c(O)nc(-n2ccnc2)nc1-c1cnn(CC(=O)N2CCC(O)C2)c1` (stereo not drawn) [Example 112, 2-{4-[6-Hydroxy-2-(1H-imidazol-1-yl)-5-(propan-2-yl)pyrimidin-4-yl]-1H-pyrazol-1-yl}-1-(3-hydroxy-pyrrolidin-1-yl)ethan-1-one], the results for the IC50 against KDM5B and on KDM4C were 21 nM and 1600 nM, respectively.

On to `CC(C)c1c(O)nc(-n2ccnc2)nc1-c1cnn(Cc2ccccn2)c1` [Example 64, 2-(1H-Imidazol-1-yl)-5-(propan-2-yl)-6-[1-(pyridin-2-ylmethyl)-1H-pyrazol-4-yl]-pyrimidin-4-ol], for which the IC50 on KDM5B (setting [1]) turned out to be 19 nM; on KDM4C, 2010 nM.

In the case of `CC(C)c1c(O)nc(-n2ccnc2)nc1NCc1cccnc1` [Example 18, 2-(1H-Imidazol-1-yl)-5-isopropyl-6-((pyridin-3-ylmethyl)amino)pyrimidin-4-ol], the IC50 on KDM5B was determined as 27 nM; at KDM4C, 2970 nM.

Turning to `CC(C)c1c(O)nc(-n2ccnc2)nc1OCC(=O)NS(C)(=O)=O` [Example 17, 2-{[6-hydroxy-2-(1H-imidazol-1-yl)-5-(propan-2-yl)pyrimidin-4-yl]oxy}-N-methanesulfonylacetamide], the IC50 against KDM5B is 148 nM; at KDM4C it was 9570 nM.

As to `CC(C)c1c(O)nc(-n2ccnc2)nc1-n1ccnc1` [Example 28b, 2,6-di(1H-imidazol-1-yl)-5-isopropylpyrimidin-4-ol], the IC50 is 19 nM against KDM5B and 1650 nM at KDM4C.

In the case of `CC(C)c1c(O)nc(-n2ccnc2)nc1-c1cn[nH]c1` [Example 46, 2-(1H-Imidazol-1-yl)-5-(propan-2-yl)-6-(1H-pyrazol-4-yl)pyrimidin-4-ol], the IC50 stood at 10 nM on KDM5B (setting [1]) and 1130 nM against KDM4C.

For the compound `CC(C)c1c(O)nc(-n2ccnc2)nc1-c1cnn(CC(=O)N2CCOCC2)c1` [Example 117, 2-{4-[6-Hydroxy-2-(1H-imidazol-1-yl)-5-(propan-2-yl)pyrimidin-4-yl]-1H-pyrazol-1-yl}-1-(morpholin-4-yl)ethan-1-one], the IC50 against KDM5B was 31 nM; on KDM4C, 1970 nM.

For the compound `Cc1nc(-c2cncn2C)nc(O)c1C(C)C` [Example 31, 6-methyl-2-(1-methyl-1H-imidazol-5-yl)-5-(propan-2-yl)pyrimidin-4-ol], the IC50 at KDM5B stood at 74 nM; on KDM4C it was 5680 nM.

For `Oc1nc(-c2cncs2)ncc1C1CC1` [Example 32, 5-cyclopropyl-2-(thiazol-5-yl)pyrimidin-4-ol], the IC50 against KDM5B came out at 4420 nM; at KDM4C, 14100 nM.

`Cc1nc(-n2ccnc2)nc(O)c1C(C)C` [Example 22, 2-(1H-imidazol-1-yl)-5-isopropyl-6-methylpyrimidin-4-ol]: the IC50 on KDM5B was 16 nM; against KDM4C it was 470 nM.

Take `CC(C)c1c(O)nc(-n2ccnc2)nc1-c1ccc(C(=O)NCCN(C)C)nc1` [Example 8, N-(2-(dimethylamino)ethyl)-5-(6-hydroxy-2-(1H-imidazol-1-yl)-5-isopropylpyrimidin-4-yl)-picolinamide]: the IC50 at KDM5B is 8 nM; on KDM4C, 752 nM.

Regarding `CC(C)c1c(O)nc(-n2ccnc2)nc1-c1cnn(CC(=O)NC(CO)C(C)C)c1` (stereo not drawn) [Example 115, 2-{4-[6-Hydroxy-2-(1H-imidazol-1-yl)-5-(propan-2-yl)pyrimidin-4-yl]-1H-pyrazol-1-yl}-N-(1-hydroxy-3-methylbutan-2-yl)acetamide], the IC50 came out at 30 nM on KDM5B and 1250 nM at KDM4C.

For the compound `CC(C)c1c(O)nc(-n2ccnc2)nc1-c1cccc(C(=O)N2CCOCC2)c1` [Example 82, 2-(1H-Imidazol-1-yl)-6-[3-(morpholine-4-carbonyl)-phenyl]-5-(propan-2-yl)-pyrimidin-4-ol], the results for the IC50 at KDM5B and on KDM4C were 73 nM and 7970 nM, respectively.

As to `CC(C)c1c(O)nc(-n2ccnc2)nc1-c1cnn(CC2CC2)c1` [Example 52, 6-[1-(Cyclopropylmethyl)-1H-pyrazol-4-yl]-2-(1H-imidazol-1-yl)-5-(propan-2-yl)pyrimidin-4-ol], the IC50 against KDM5B came out at 14 nM; against KDM4C it was 840 nM.

Take `Cc1nccn1-c1nc(O)c(C(C)C)c(-c2cnn(C(C)C)c2)n1` [Example 4, 5-isopropyl-6-(1-isopropyl-1H-pyrazol-4-yl)-2-(2-methyl-1H-imidazol-1-yl)pyrimidin-4-ol]: the values for the 50% inhibitory concentration (IC50) against KDM5B and against KDM4C were 125 nM and 4480 nM, respectively.
